# Results reported in patent US20050238730A1, “Compositions comprising an ethanolamine derivative and organic metal salts” (priority 2001, published 2005).
# System: human dermal fibroblasts
# Assay: Fibroblasts proliferation after 10 days of culture (cells trypsinized and counted with a Coulter counter)
# Format: cell-based
# Conditions: 2% FCS
# Method: Fibroblasts were seeded in 24 multiwell plates at 25,000 cells per well in 1 ml of DMEM supplemented with fetal calf serum (FCS) and antibiotics. Cultures were incubated 24 hours at 37° C. to allow cell attachment and spreading. Supernatants were then eliminated and replaced with fresh medium supplemented with 2% of FCS and containing the tested product at different concentrations. After 10 days of culture, cells were trypsinized and counted with a Coulter counter.
Compound,% effect vs control (DMAE 10^-4 M alone),% effect vs control (DMAE 10^-5 M alone),% effect vs control (metal salt alone 5 ng/ml),Mean of cell/ml (metal salt alone 5 ng/ml),% effect vs control (metal salt alone 50 ng/ml),Mean of cell/ml (metal salt alone 50 ng/ml),% effect vs control (metal salt alone 500 ng/ml),Mean of cell/ml (metal salt alone 500 ng/ml)
"CN(C)CCO [DMAE, dimethylaminoethanol]",31%,14%,–,–,–,–,–,–
"N[C@@H](CC(=O)[O-])C(=O)[O-].[Mg+2] [Mg aspartate, magnesium aspartate]",–,–,2%,78073 ± 4231 cell/ml,3%,79400 ± 1674 cell/ml,21%,92753 ± 2771 cell/ml
zinc gluconate [Zn gluconate],–,–,0%,–,3%,–,11%,–
